In ChEMBL document CHEMBL1201862, “PubChem BioAssay data set” (2004):
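Following 48 hours of exposure in 96-well plates, responses at five concentrations were used to interpolate endpoints linearly. Abbreviation: GI50, concentration required for 50% inhibition of growth.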 Calls of active or inactive are those of the source. No stated cut-off is given here; in the data, active = GI50 up to about 1.1 µM and inactive = higher.

Experiments:
Test in all cases: NCI anticancer screen, dose series, 48 h
A498 = tested on: A498
RPMI-8226 = tested on: RPMI-8226
K562 = tested on: K562
LOX IMVI = tested on: LOX IMVI
MDA-MB-231 = tested on: MDA-MB-231
MDA-N = tested on: MDA-N
DU-145 = tested on: DU-145
SK-OV-3 = tested on: SK-OV-3
SK-MEL-28 = tested on: SK-MEL-28
OVCAR-5 = tested on: OVCAR-5
SN12C = tested on: SN12C
HL-60 = tested on: HL-60
SR = tested on: SR
U-251 = tested on: U-251
OVCAR-4 = tested on: OVCAR-4
UO-31 = tested on: UO-31
OVCAR-3 = tested on: OVCAR-3
A549 = tested on: A549
HT-29 = tested on: HT-29
LXFL 529 = tested on: LXFL 529

Which GI50 (A498) does the source give for `CC(C)=CCCC(C)C1=C(O)C(=O)C(C)=CC1=O` (stereo not drawn) here?
Its GI50 is 18.7 µM (inactive).

And the GI50 (RPMI-8226)?
Its GI50 is 0.838 µM (active).

And the GI50 (K562)?
The GI50 was 0.336 µM (active).

What about the GI50 (LOX IMVI) of the same molecule?
Its GI50 is 3.66 µM (inactive).

And the GI50 (MDA-MB-231)?
Its GI50 is 2.98 µM (inactive).

What about the GI50 (MDA-N) of the same molecule?
The GI50 was 5.78 µM (inactive).

What about the GI50 (DU-145) of the same molecule?
Its GI50 is 17.6 µM (inactive).

What about the GI50 (SK-OV-3) of the same molecule?
The GI50 was 28.1 µM (inactive).

What about the GI50 (SK-MEL-28) of the same molecule?
The GI50 was 4.24 µM (inactive).

And the GI50 (OVCAR-5)?
Its GI50 is 16.4 µM (inactive).

What about the GI50 (SN12C) of the same molecule?
The GI50 was 14.7 µM (inactive).

What about the GI50 (HL-60) of the same molecule?
Its GI50 is 0.332 µM (active).

What about the GI50 (SR) of the same molecule?
Its GI50 is 1.29 µM (inactive).

And the GI50 (U-251)?
The GI50 was 22.9 µM (inactive).

And the GI50 (OVCAR-4)?
The GI50 was 6.41 µM (inactive).

And the GI50 (UO-31)?
The GI50 was 7.82 µM (inactive).

And the GI50 (OVCAR-3)?
The GI50 was 7.53 µM (inactive).

What about the GI50 (A549) of the same molecule?
Its GI50 is 45.5 µM (inactive).

What about the GI50 (HT-29) of the same molecule?
The GI50 was 16.3 µM (inactive).

Which results are given for `N=C(N)NCCCC(=O)O`?
GI50 (A498): > 100 µM (inactive); GI50 (RPMI-8226): > 100 µM (inactive); GI50 (K562): > 100 µM (inactive); GI50 (LOX IMVI): > 100 µM (inactive); GI50 (MDA-MB-231): > 100 µM (inactive); GI50 (MDA-N): > 100 µM (inactive); GI50 (DU-145): > 100 µM (inactive); GI50 (SK-OV-3): > 100 µM (inactive); GI50 (SK-MEL-28): > 100 µM (inactive); GI50 (OVCAR-5): > 100 µM (inactive); GI50 (SN12C): > 100 µM (inactive); GI50 (HL-60): > 100 µM (inactive); GI50 (SR): > 100 µM (inactive); GI50 (U-251): > 100 µM (inactive); GI50 (OVCAR-4): > 100 µM (inactive); GI50 (UO-31): > 100 µM (inactive); GI50 (OVCAR-3): > 100 µM (inactive); GI50 (A549): > 100 µM (inactive); GI50 (HT-29): > 100 µM (inactive)

Which GI50 (A498) does the source give for `O=c1/c(=C/c2cccc3ccccc23)sc2nc3ccccc3n12` here?
Its GI50 is > 100 µM (inactive).

And the GI50 (K562)?
The GI50 was > 100 µM (inactive).

What about the GI50 (LOX IMVI) of the same molecule?
Its GI50 is > 100 µM (inactive).

What about the GI50 (LXFL 529) of the same molecule?
The GI50 was > 100 µM (inactive).

And the GI50 (SK-MEL-28)?
The GI50 was > 100 µM (inactive).

What about the GI50 (OVCAR-5) of the same molecule?
The GI50 was > 100 µM (inactive).

What about the GI50 (SN12C) of the same molecule?
Its GI50 is > 100 µM (inactive).

What about the GI50 (HL-60) of the same molecule?
Its GI50 is > 100 µM (inactive).

What about the GI50 (U-251) of the same molecule?
Its GI50 is > 100 µM (inactive).

What about the GI50 (OVCAR-4) of the same molecule?
The GI50 was > 100 µM (inactive).

What about the GI50 (UO-31) of the same molecule?
Its GI50 is > 100 µM (inactive).

And the GI50 (OVCAR-3)?
The GI50 was > 100 µM (inactive).

What about the GI50 (A549) of the same molecule?
The GI50 was > 100 µM (inactive).

And the GI50 (HT-29)?
Its GI50 is > 100 µM (inactive).

What does the source list for `OC1(c2ccc3ccccc3c2)c2c(c3ccccc3c3ccccc23)C2=NCCN21` (stereo not drawn)?
GI50 (A498): 12.1 µM (inactive); GI50 (RPMI-8226): 2.52 µM (inactive); GI50 (K562): 3.81 µM (inactive); GI50 (LOX IMVI): 2.28 µM (inactive); GI50 (MDA-MB-231): 10.1 µM (inactive); GI50 (MDA-N): 1.96 µM (inactive); GI50 (DU-145): 16.9 µM (inactive); GI50 (SK-OV-3): 6.68 µM (inactive); GI50 (SK-MEL-28): 2.12 µM (inactive); GI50 (OVCAR-5): 7.78 µM (inactive); GI50 (SN12C): 9.2 µM (inactive); GI50 (HL-60): 6.46 µM (inactive); GI50 (SR): 3.08 µM (inactive); GI50 (U-251): 5.75 µM (inactive); GI50 (OVCAR-4): 3.55 µM (inactive); GI50 (UO-31): 6.92 µM (inactive); GI50 (OVCAR-3): 7.21 µM (inactive); GI50 (A549): 7.1 µM (inactive); GI50 (HT-29): 2.8 µM (inactive)

What does the source list for `CC(C)c1ccc(/C(C(=O)O)=C(\O)C(=O)O)cc1`?
GI50 (A498): > 100 µM (inactive); GI50 (RPMI-8226): > 100 µM (inactive); GI50 (K562): > 100 µM (inactive); GI50 (LOX IMVI): > 100 µM (inactive); GI50 (MDA-MB-231): > 100 µM (inactive); GI50 (MDA-N): > 100 µM (inactive); GI50 (DU-145): > 100 µM (inactive); GI50 (SK-OV-3): > 100 µM (inactive); GI50 (SK-MEL-28): > 100 µM (inactive); GI50 (OVCAR-5): > 100 µM (inactive); GI50 (SN12C): > 100 µM (inactive); GI50 (HL-60): > 100 µM (inactive); GI50 (SR): > 100 µM (inactive); GI50 (U-251): > 100 µM (inactive); GI50 (OVCAR-4): > 100 µM (inactive); GI50 (UO-31): > 100 µM (inactive); GI50 (OVCAR-3): > 100 µM (inactive); GI50 (A549): > 100 µM (inactive); GI50 (HT-29): > 100 µM (inactive)

`O=C(N/N=C/c1ccc2c(c1)CCC2)c1ccccc1O` was tested. Which GI50 (A498) did it give?
Its GI50 is 15.7 µM (inactive).

What about the GI50 (RPMI-8226) of the same molecule?
The GI50 was 32.5 µM (inactive).

And the GI50 (K562)?
The GI50 was 38.9 µM (inactive).

What about the GI50 (LOX IMVI) of the same molecule?
The GI50 was 27.8 µM (inactive).

And the GI50 (MDA-MB-231)?
The GI50 was 19.5 µM (inactive).

And the GI50 (MDA-N)?
The GI50 was 19.4 µM (inactive).

And the GI50 (DU-145)?
The GI50 was 48 µM (inactive).

What about the GI50 (SK-OV-3) of the same molecule?
Its GI50 is 12.1 µM (inactive).

And the GI50 (SK-MEL-28)?
The GI50 was 23.5 µM (inactive).

What about the GI50 (OVCAR-5) of the same molecule?
Its GI50 is 32.5 µM (inactive).

And the GI50 (SN12C)?
Its GI50 is 23.1 µM (inactive).

And the GI50 (HL-60)?
The GI50 was 23.2 µM (inactive).

And the GI50 (SR)?
Its GI50 is 30.9 µM (inactive).

And the GI50 (U-251)?
Its GI50 is 17.7 µM (inactive).

And the GI50 (OVCAR-4)?
The GI50 was 24.8 µM (inactive).

What about the GI50 (UO-31) of the same molecule?
Its GI50 is 29 µM (inactive).

And the GI50 (OVCAR-3)?
The GI50 was 16.8 µM (inactive).

And the GI50 (A549)?
Its GI50 is 21.2 µM (inactive).

And the GI50 (HT-29)?
The GI50 was 27.3 µM (inactive).

`CNc1ccc(Cl)cc1S(=O)(=O)c1ccccc1[N+](=O)[O-]` was tested. Which GI50 (A498) did it give?
Its GI50 is > 100 µM (inactive).

And the GI50 (RPMI-8226)?
Its GI50 is > 100 µM (inactive).

What about the GI50 (K562) of the same molecule?
Its GI50 is > 100 µM (inactive).

And the GI50 (LOX IMVI)?
The GI50 was > 100 µM (inactive).

What about the GI50 (MDA-MB-231) of the same molecule?
Its GI50 is > 100 µM (inactive).

What about the GI50 (MDA-N) of the same molecule?
The GI50 was > 100 µM (inactive).

And the GI50 (DU-145)?
Its GI50 is > 100 µM (inactive).

And the GI50 (SK-OV-3)?
Its GI50 is > 100 µM (inactive).

What about the GI50 (SK-MEL-28) of the same molecule?
Its GI50 is > 100 µM (inactive).

What about the GI50 (OVCAR-5) of the same molecule?
Its GI50 is > 100 µM (inactive).

What about the GI50 (SN12C) of the same molecule?
The GI50 was > 100 µM (inactive).

What about the GI50 (HL-60) of the same molecule?
Its GI50 is > 100 µM (inactive).

And the GI50 (SR)?
The GI50 was > 100 µM (inactive).

And the GI50 (U-251)?
The GI50 was > 100 µM (inactive).

And the GI50 (OVCAR-4)?
The GI50 was 99.3 µM (inactive).

What about the GI50 (UO-31) of the same molecule?
Its GI50 is > 100 µM (inactive).

What about the GI50 (OVCAR-3) of the same molecule?
The GI50 was > 100 µM (inactive).

What about the GI50 (A549) of the same molecule?
Its GI50 is > 100 µM (inactive).

And the GI50 (HT-29)?
Its GI50 is > 100 µM (inactive).
